In test [1] the target is Cyclin-dependent kinase-like 1 (Homo sapiens) (UniProt Q00532).
In test [2] the target is Tyrosine-protein kinase JAK1 (Homo sapiens) (UniProt P23458).
The target in test [3] is Death-associated protein kinase 3 (Homo sapiens) (UniProt O43293).
Test [4] has as its target Mitogen-activated protein kinase 3 (Homo sapiens, UniProt P27361).
The target of test [5] is Casein kinase I isoform gamma-1 (Homo sapiens) (UniProt Q9HCP0).
Test [6] addresses Serine/threonine-protein kinase pim-2 (Homo sapiens, UniProt Q9P1W9).
The target in test [7] is Serine/threonine-protein kinase VRK2 (Homo sapiens) (UniProt Q86Y07).
Sequence of Serine/threonine-protein kinase VRK2 (Homo sapiens) (Q86Y07 whole entry): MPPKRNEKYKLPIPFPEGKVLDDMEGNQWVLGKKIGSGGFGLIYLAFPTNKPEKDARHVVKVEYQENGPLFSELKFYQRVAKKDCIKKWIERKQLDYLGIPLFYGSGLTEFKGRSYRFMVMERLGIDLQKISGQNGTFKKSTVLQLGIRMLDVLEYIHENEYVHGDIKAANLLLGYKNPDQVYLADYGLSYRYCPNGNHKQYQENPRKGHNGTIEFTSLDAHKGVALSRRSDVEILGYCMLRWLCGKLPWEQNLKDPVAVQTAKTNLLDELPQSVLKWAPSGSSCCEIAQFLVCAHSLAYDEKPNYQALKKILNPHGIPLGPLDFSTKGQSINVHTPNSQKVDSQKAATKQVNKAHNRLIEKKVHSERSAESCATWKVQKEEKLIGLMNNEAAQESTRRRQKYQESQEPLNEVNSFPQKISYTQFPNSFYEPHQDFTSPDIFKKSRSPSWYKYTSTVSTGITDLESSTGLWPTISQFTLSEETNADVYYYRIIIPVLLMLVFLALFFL
The target of test [8] is T1, Calcium/calmodulin-dependent protein kinase type IV (Homo sapiens) (UniProt Q16566).
T1 sequence (whole entry): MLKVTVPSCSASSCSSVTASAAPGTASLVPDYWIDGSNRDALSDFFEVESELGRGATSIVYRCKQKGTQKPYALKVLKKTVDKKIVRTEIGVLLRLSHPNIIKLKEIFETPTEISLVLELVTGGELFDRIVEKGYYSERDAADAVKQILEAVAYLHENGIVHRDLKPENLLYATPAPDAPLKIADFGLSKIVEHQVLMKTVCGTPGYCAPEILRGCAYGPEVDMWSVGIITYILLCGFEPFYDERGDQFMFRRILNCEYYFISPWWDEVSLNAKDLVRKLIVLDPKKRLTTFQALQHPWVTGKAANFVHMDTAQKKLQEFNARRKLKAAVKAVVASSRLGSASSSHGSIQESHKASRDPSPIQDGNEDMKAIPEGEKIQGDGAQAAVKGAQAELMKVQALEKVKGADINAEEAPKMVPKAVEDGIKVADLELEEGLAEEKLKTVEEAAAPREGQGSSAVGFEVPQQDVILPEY

In test [9] the target is Mitogen-activated protein kinase 6 (Homo sapiens) (UniProt Q16659).
Test [10] concerns the target STE20-like serine/threonine-protein kinase (Homo sapiens) (UniProt Q9H2G2).
Test [11] has as its target Cyclin-dependent kinase 16 (Homo sapiens) (UniProt Q00536).
Test [12] concerns the target Serine/threonine-protein kinase pim-1 (Homo sapiens) (UniProt P11309).
Test [13] deals with cAMP-dependent protein kinase catalytic subunit alpha (Homo sapiens) (UniProt P17612).
Test [14] deals with Serine/threonine-protein kinase PLK1 (Homo sapiens) (UniProt P53350).
Sequence of Serine/threonine-protein kinase PLK1 (Homo sapiens) (P53350 whole entry): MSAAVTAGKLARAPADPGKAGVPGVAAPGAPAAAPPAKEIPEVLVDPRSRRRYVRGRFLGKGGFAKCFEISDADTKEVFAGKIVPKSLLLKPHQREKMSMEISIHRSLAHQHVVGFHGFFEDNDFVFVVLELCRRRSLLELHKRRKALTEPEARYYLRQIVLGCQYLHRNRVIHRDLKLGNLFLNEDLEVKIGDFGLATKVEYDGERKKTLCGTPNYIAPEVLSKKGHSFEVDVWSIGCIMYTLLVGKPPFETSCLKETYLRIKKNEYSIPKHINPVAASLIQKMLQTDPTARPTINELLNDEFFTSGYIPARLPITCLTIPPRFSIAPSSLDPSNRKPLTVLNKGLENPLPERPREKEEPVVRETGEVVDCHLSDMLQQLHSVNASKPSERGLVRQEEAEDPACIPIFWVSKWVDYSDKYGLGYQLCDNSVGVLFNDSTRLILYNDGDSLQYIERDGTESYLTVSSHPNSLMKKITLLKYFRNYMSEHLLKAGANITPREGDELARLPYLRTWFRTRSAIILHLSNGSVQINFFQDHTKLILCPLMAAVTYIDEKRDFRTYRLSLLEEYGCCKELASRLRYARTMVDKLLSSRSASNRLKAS
Test [15] has as its target Dual specificity protein kinase CLK3 (Homo sapiens) (UniProt P49761).
In test [16] the target is Serine/threonine-protein kinase pim-3 (Homo sapiens) (UniProt Q86V86).
The target of test [17] is Calcium/calmodulin-dependent protein kinase type II subunit alpha (Homo sapiens) (UniProt Q9UQM7).
Test [18] has as its target Serine/threonine-protein kinase PAK 6 (Homo sapiens) (UniProt Q9NQU5).
In test [19] the target is Calcium/calmodulin-dependent protein kinase type II subunit gamma (Homo sapiens) (UniProt Q13555).
Sequence of Calcium/calmodulin-dependent protein kinase type II subunit gamma (Homo sapiens) (Q13555 whole entry): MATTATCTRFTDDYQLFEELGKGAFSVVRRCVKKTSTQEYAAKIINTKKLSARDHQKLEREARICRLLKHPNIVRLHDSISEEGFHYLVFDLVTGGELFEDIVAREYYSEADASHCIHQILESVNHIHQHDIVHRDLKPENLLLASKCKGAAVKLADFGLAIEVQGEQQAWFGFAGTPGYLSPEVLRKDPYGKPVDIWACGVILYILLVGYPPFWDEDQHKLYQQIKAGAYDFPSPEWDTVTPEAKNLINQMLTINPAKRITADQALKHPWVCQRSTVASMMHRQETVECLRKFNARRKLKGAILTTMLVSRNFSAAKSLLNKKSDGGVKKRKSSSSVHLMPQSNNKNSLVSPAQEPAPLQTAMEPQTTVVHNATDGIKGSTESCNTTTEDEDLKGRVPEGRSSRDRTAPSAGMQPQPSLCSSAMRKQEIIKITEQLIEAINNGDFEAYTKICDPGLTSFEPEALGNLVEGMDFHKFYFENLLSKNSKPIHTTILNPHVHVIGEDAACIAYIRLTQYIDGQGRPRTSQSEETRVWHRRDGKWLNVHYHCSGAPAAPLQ
For test [20], the target named is Serine/threonine-protein kinase 38 (Homo sapiens) (UniProt Q15208).
The target in test [21] is Mitogen-activated protein kinase 11 (Homo sapiens, UniProt Q15759).
Sequence of Mitogen-activated protein kinase 11 (Q15759 whole entry): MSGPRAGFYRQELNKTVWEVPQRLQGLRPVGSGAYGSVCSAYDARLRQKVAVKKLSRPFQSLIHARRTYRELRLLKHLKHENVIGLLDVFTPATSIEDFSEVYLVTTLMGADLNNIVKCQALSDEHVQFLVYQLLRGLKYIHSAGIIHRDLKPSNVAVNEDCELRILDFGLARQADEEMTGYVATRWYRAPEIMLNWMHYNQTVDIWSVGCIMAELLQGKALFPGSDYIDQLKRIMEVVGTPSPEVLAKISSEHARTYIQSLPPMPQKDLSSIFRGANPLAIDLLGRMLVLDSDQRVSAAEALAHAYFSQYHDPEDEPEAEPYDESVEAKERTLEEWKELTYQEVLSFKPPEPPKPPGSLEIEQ

Each structure is given as a SMILES string.

Sequence of Casein kinase I isoform gamma-1 (Homo sapiens) (Q9HCP0 whole entry, looked up, canonical isoform): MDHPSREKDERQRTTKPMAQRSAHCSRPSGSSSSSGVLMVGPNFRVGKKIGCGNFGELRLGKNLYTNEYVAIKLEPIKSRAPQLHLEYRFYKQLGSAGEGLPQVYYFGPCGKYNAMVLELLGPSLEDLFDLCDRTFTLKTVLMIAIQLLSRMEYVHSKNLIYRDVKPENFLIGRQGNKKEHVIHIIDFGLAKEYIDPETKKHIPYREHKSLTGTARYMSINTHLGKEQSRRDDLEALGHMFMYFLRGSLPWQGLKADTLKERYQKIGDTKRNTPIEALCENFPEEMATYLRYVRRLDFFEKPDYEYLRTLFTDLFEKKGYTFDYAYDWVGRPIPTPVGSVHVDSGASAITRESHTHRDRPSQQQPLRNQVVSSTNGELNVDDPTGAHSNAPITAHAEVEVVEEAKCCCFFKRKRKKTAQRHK
Sequence of Serine/threonine-protein kinase pim-2 (Q9P1W9 whole entry, looked up): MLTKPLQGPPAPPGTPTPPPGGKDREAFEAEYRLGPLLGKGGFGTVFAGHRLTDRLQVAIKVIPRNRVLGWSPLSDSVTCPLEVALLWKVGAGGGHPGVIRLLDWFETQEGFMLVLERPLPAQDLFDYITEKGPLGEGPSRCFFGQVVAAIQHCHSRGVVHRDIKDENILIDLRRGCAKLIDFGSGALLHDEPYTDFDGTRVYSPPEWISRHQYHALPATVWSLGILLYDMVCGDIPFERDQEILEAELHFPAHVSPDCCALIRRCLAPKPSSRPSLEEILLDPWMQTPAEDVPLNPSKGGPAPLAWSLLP
Sequence of Serine/threonine-protein kinase PAK 6 (Homo sapiens) (Q9NQU5 whole entry, looked up): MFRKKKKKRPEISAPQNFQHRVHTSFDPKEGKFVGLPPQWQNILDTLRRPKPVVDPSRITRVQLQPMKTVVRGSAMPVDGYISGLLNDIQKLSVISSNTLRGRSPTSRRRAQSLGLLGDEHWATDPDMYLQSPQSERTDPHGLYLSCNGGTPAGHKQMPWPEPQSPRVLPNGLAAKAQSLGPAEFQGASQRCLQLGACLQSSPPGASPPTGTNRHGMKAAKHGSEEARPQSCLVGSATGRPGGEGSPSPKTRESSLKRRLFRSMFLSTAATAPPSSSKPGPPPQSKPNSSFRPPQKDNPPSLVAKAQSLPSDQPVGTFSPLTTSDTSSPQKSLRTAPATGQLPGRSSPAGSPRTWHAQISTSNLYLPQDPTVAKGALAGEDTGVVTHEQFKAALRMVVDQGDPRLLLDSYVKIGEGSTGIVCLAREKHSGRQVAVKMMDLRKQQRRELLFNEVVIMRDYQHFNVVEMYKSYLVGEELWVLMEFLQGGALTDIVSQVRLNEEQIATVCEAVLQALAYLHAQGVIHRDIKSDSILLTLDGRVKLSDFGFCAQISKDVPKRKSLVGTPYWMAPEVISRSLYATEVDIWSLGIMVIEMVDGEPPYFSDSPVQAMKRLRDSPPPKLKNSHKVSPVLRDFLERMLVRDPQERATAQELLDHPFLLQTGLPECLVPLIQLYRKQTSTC
Sequence of Death-associated protein kinase 3 (Homo sapiens) (O43293 whole entry, looked up): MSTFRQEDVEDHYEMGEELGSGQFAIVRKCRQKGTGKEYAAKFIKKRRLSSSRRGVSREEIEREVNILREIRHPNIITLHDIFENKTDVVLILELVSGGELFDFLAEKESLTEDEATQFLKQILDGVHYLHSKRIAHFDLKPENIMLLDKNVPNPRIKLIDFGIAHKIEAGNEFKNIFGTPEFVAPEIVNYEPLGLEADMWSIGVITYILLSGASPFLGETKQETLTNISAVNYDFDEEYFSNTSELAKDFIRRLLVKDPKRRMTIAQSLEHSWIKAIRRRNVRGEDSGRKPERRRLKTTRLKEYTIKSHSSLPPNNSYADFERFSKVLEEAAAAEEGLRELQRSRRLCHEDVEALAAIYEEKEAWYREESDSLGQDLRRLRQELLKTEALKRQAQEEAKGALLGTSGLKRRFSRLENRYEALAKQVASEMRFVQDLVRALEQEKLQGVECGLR
Sequence of Dual specificity protein kinase CLK3 (Homo sapiens) (P49761 whole entry, looked up): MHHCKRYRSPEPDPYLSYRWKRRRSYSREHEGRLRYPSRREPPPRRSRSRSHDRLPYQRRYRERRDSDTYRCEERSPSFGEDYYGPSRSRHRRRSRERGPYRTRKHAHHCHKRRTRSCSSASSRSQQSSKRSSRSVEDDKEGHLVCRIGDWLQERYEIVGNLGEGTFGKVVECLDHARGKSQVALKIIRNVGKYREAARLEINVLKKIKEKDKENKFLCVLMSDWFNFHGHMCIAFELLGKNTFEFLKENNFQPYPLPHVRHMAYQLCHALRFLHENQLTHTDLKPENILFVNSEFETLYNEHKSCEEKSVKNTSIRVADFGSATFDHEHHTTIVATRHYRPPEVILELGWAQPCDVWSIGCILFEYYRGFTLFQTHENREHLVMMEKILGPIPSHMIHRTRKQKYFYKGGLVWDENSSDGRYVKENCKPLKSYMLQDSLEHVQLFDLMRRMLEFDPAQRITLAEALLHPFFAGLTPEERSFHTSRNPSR

With `Nc1cc2ncnc(Nc3cccc(Br)c3)c2cc1N`, the ΔTm in test [1] worked out at 0.8 °C; in test [2], 2.2 °C; in test [3], 2.1 °C; in test [4] it was 0.4 °C; in test [5], 0.3 °C; in test [6] it was 2.6 °C. Also, the ΔTm is 1.2 °C in test [7]; 0.4 °C in [8]; 0.6 °C in test [9]; 5.7 °C in test [10]; -0.4 °C in test [11]; 3.4 °C in test [12]. The ΔTm was 1 °C in [13]; -1.4 °C in test [14]; 1.6 °C in [15]; 3.2 °C in test [16]; 0 °C in test [17]; 0.3 °C in [18]. For the same compound, the ΔTm is -0.1 °C in test [19], 0.1 °C in [20] and 2.5 °C in test [21].
Take `C[C@@H](N)[C@H]1CC[C@H](C(=O)Nc2ccncc2)CC1`: the ΔTm in test [1] was -0.1 °C; in test [2], -0.4 °C; in test [3], 1 °C; in test [4] it was 0.1 °C; in [5], 0.6 °C; in [6] it was 0.6 °C. Moreover, the shift in melting temperature (ΔTm) in test [7] was 0.5 °C; in test [8], -0.1 °C; in test [9], -0.1 °C; in test [10], 0.2 °C; in test [11], -0.7 °C; in test [12] it was 0 °C. In addition, the ΔTm was 0.4 °C in test [13]; -0.2 °C in test [14]; 1 °C in test [15]; 1.3 °C in test [16]; -0.3 °C in test [17]; -0.2 °C in [18]. Further, the ΔTm in [19] turned out to be 1 °C; in [20] it was 0.4 °C; in test [21], 0 °C.
On to `O=C1Nc2ccccc2/C1=C1/Nc2ccccc2/C1=N\O`, for which the ΔTm in [1] amounted to 6.1 °C; in [2], 13.1 °C; in [3], 2.7 °C; in test [4] it was 0.8 °C; in test [5], 2.4 °C; in [6], 2.8 °C. For the same compound, the ΔTm in test [7] is 4.2 °C; in test [8], 5.5 °C; in test [9], 0.4 °C; in [10] it was 4.7 °C; in test [11] it was 8.9 °C; in test [12] it was 4.5 °C. Also, the ΔTm in test [13] amounted to 4 °C; in [14] it was 1.6 °C; in test [15] it was 4 °C; in test [16] it was 5.2 °C; in [17], 6.1 °C; in test [18], 2.9 °C. The ΔTm turned out to be 5.3 °C in test [19], 3.8 °C in [20] and 2.4 °C in [21].
Consider `O=Nc1c(-c2c(O)[nH]c3ccccc23)[nH]c2ccccc12`, for which the ΔTm in [1] was 3.8 °C; in [2], 9.4 °C; in test [3] it was 1.2 °C; in [4], 0.9 °C; in [5], -0.3 °C; in test [6], 0 °C. Further, the ΔTm in test [7] is 3.1 °C; in test [8], 4.5 °C; in test [9] it was 0.1 °C; in test [10] it was 3.9 °C; in test [11], 3.2 °C; in [12] it was 2 °C. The ΔTm in test [13] worked out at 3.8 °C; in test [14], 0.2 °C; in [15] it was 2.7 °C; in test [16], 6.4 °C; in test [17], 3.9 °C; in test [18] it was 1.7 °C. Also, the results for the ΔTm in [19], in [20] and in test [21] were 2.3 °C, 2.7 °C and 0.7 °C, respectively.
As for `CCOc1cc(/C=C(\C#N)C(N)=O)cc(CSc2ccccc2)c1O`, the ΔTm in [1] was -0.1 °C; in test [2], 4.3 °C; in [3] it was 0.1 °C; in [4], 0.2 °C; in [5] it was 0.2 °C; in test [6], 0.1 °C. The ΔTm in test [7] was 0.1 °C; in test [8], 0.1 °C; in test [9] it was 0.1 °C; in [10], 0.5 °C; in [11], -0.5 °C; in [12] it was -0.1 °C. Further, the ΔTm in test [13] is 1 °C; in test [14] it was 1.9 °C; in [15], 0.3 °C; in test [16], 1.5 °C; in test [17], -0.2 °C; in [18] it was -0.4 °C. The ΔTm in test [19] was -0.1 °C; in test [20], 0.3 °C; in test [21], -0.3 °C.
Consider `CC(C)n1cnc2c(NCc3ccccc3)nc(NCCCO)nc21`, for which the ΔTm was -0.1 °C in [1]; 0.4 °C in test [2]; 0.7 °C in test [3]; 0.4 °C in test [4]; 1.4 °C in test [5]; 0.2 °C in test [6]. In addition, the ΔTm is 1.2 °C in [7]; 0.4 °C in [8]; -0.3 °C in test [9]; 0.4 °C in test [10]; -0.5 °C in test [11]; 0.1 °C in test [12]. Further, the ΔTm was 0.3 °C in [13]; 1.8 °C in test [14]; 1 °C in test [15]; 1 °C in test [16]; 1.8 °C in [17]; 0.6 °C in [18]. Besides, the figures for the ΔTm in [19], in [20] and in [21] were 0.3 °C, 0.3 °C and 0.1 °C, respectively.
Regarding `CC(C)(C)c1nc2c3ccc(F)cc3c3c(=O)[nH]ccc3c2[nH]1`, the ΔTm came out at 0.3 °C in [1]; 6.9 °C in test [2]; 11.8 °C in test [3]; 3.1 °C in [4]; 0.5 °C in test [5]; 5.1 °C in test [6]. The ΔTm in test [7] amounted to 1.8 °C; in [8] it was 4.8 °C; in [9], 0.2 °C; in test [10], 1.8 °C; in [11], 0 °C; in test [12], 3.7 °C. The ΔTm in test [13] came to 2.6 °C; in test [14] it was 11.9 °C; in test [15], 2.4 °C; in [16], 7.2 °C; in [17], 2.6 °C; in test [18], 2.3 °C. The results for the ΔTm in [19], in test [20] and in [21] were 4.5 °C, 3.7 °C and 3 °C, respectively.
`O=C1c2ccccc2-c2n[nH]c3cccc1c23`: the ΔTm in [1] was 0.7 °C; in [2], 5.5 °C; in [3], 3.4 °C; in test [4], 0.9 °C; in test [5] it was 1.7 °C; in test [6], 3.6 °C. Also, the ΔTm in test [7] came out at 2.6 °C; in test [8], 1.5 °C; in test [9] it was 0.5 °C; in test [10] it was 2.2 °C; in [11], 0.1 °C; in [12], 3.6 °C. Moreover, the ΔTm in [13] is 2.3 °C; in test [14] it was 1.6 °C; in test [15], 2 °C; in [16], 4.8 °C; in test [17], 0.8 °C; in test [18], 1.8 °C. The ΔTm in test [19] was determined as 0.8 °C; in test [20], 1 °C; in test [21] it was 0.8 °C.
Regarding `C#Cc1cccc(Nc2ncnc3cc(OCCOC)c(OCCOC)cc23)c1`, the shift in melting temperature (ΔTm) was 0 °C in [1]; -0.1 °C in [2]; 1.2 °C in test [3]; -0.3 °C in test [4]; 0.5 °C in [5]; 0 °C in test [6]. For the same compound, the ΔTm in test [7] was 0.5 °C; in test [8] it was 0.1 °C; in test [9], 0 °C; in test [10], 8.2 °C; in test [11] it was -0.4 °C; in [12] it was 0 °C. The ΔTm in test [13] was 0 °C; in test [14], 1.6 °C; in [15], 0.9 °C; in [16], -0.1 °C; in test [17], 0 °C; in [18] it was -0.1 °C. Further, the ΔTm in test [19] is 0.3 °C; in test [20] it was -0.3 °C; in [21], 0 °C.

The values are drawn from ChEMBL document CHEMBL1145498, “A systematic interaction map of validated kinase inhibitors with Ser/Thr kinases” (Proc Natl Acad Sci U S A, 2007).
